# According to PubChem BioAssay AID256 (DTP/NCI, 2004):
# Values joined by “and” are separate entries in the source; they are usually repeats but may differ in a detail not shown here. Equal values may be shown once. Inconclusive results and toxic doses are left out. Residues, ends and D or L forms follow the SMILES beside them.
# Test system: CD2F1 mice, L1210 leukemia ip, survival T/C
# Test: NCI In Vivo Anticancer Drug Screen. Data for tumor model L1210 Leukemia (intraperitoneal) in CD2F1 (CDF1) mice
# Settings: higher = longer survival
# How it was run: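 Compound-dosed mice with transplantable tumor versus matched vehicle controls; endpoint ratio T/C reported.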
# [1] = endpoint: mean survival time, dose: 100.0 mg/kg/injection, schedule: Q04DX003 (ip), vehicle: saline
# [2] = endpoint: mean survival time, dose: 200.0 mg/kg/injection, schedule: Q04DX003 (ip), vehicle: saline
# [3] = endpoint: mean survival time, dose: 50.0 mg/kg/injection, schedule: Q01DX009 (ip), vehicle: saline
# [4] = endpoint: mean survival time, dose: 100.0 mg/kg/injection, schedule: Q01DX009 (ip), vehicle: saline with Tween-80
# [5] = endpoint: mean survival time, dose: 400.0 mg/kg/injection, schedule: Q01DX009 (ip), vehicle: saline with Tween-80
# [6] = endpoint: mean survival time, dose: 100.0 mg/kg/injection, schedule: Q01DX001 (ip), vehicle: saline with Tween-80
# [7] = endpoint: mean survival time, dose: 200.0 mg/kg/injection, schedule: Q01DX001 (ip), vehicle: saline with Tween-80
# [8] = endpoint: mean survival time, dose: 400.0 mg/kg/injection, schedule: Q01DX001 (ip), vehicle: saline with Tween-80
# [9] = endpoint: mean survival time, dose: 100.0 mg/kg/injection, schedule: Q04DX003 (ip), vehicle: saline with Tween-80
# [10] = endpoint: mean survival time, dose: 200.0 mg/kg/injection, schedule: Q04DX003 (ip), vehicle: saline with Tween-80
# [11] = endpoint: mean survival time, dose: 400.0 mg/kg/injection, schedule: Q04DX003 (ip), vehicle: saline with Tween-80
# [12] = endpoint: mean survival time, dose: 100.0 mg/kg/injection, schedule: Q01DX001 (ip), vehicle: saline
# [13] = endpoint: mean survival time, dose: 200.0 mg/kg/injection, schedule: Q01DX001 (ip), vehicle: saline
# [14] = endpoint: mean survival time, dose: 200.0 mg/kg/injection, schedule: Q01DX009 (ip), vehicle: saline with Tween-80
# [15] = endpoint: mean survival time, dose: 400.0 mg/kg/injection, schedule: Q04DX003 (ip), vehicle: saline
# [16] = endpoint: mean survival time, dose: 50.0 mg/kg/injection, schedule: Q01DX009 (ip), vehicle: saline with Tween-80
structure (smiles),measurement,setting,value
Nc1ncnc2c1nc(NCc1ccccc1)n2C1OC(CO)C(O)C1O (stereo unspecified),T/C,"endpoint: mean survival time, dose: 12.5 mg/kg/injection, schedule: Q01DX005 (ip), vehicle: distilled water + Tween-80",93 % of control
same,T/C,"endpoint: mean survival time, dose: 25.0 mg/kg/injection, schedule: Q01DX005 (ip), vehicle: distilled water + Tween-80",100 % of control and 95 % of control
same,T/C,"endpoint: mean survival time, dose: 50.0 mg/kg/injection, schedule: Q01DX005 (ip), vehicle: distilled water + Tween-80",92 % of control and 101 % of control
same,T/C,"endpoint: mean survival time, dose: 100.0 mg/kg/injection, schedule: Q01DX005 (ip), vehicle: distilled water + Tween-80",99 % of control and 93 % of control
same,T/C,"endpoint: mean survival time, dose: 200.0 mg/kg/injection, schedule: Q01DX005 (ip), vehicle: distilled water + Tween-80",99 % of control and 100 % of control
same,T/C,"endpoint: mean survival time, dose: 400.0 mg/kg/injection, schedule: Q01DX005 (ip), vehicle: distilled water + Tween-80",89 % of control
Cc1ccc(C(=O)NC2C(=O)NC(C(C)C)C(=O)N3CCCC3C(=O)N(C)CC(=O)N(C)C(C(C)C)C(=O)OC2C)c2c1Oc1c(c(C(=O)NC3C(=O)NC(C(C)C)C(=O)N4CCCC4C(=O)N(C)CC(=O)N(C)C(C(C)C)C(=O)OC3C)c3nc(-c4ccccc4)c(=O)oc3c1C)N2 (stereo unspecified),T/C,"endpoint: median survival time, dose: 0.06 mg/kg/injection, schedule: Q01DX009 (ip), vehicle: water",112 % of control
same,T/C,"endpoint: median survival time, dose: 0.12 mg/kg/injection, schedule: Q01DX009 (ip), vehicle: water",122 % of control
same,T/C,"endpoint: median survival time, dose: 0.25 mg/kg/injection, schedule: Q01DX009 (ip), vehicle: water",117 % of control
CCCCCC(C)C1(CCCC)NC(C)(C)CC(C)O1 (stereo unspecified),T/C,[1],95 % of control
same,T/C,[2],90 % of control
O=C(c1ccccc1)C(Cl)Cl,T/C,[3],95 % of control
same,T/C,[4],108 % of control
same,T/C,"endpoint: mean survival time, dose: 100.0 mg/kg/injection, schedule: Q01DX009 (ip), vehicle: saline",95 % of control
same,T/C,"endpoint: mean survival time, dose: 200.0 mg/kg/injection, schedule: Q01DX009 (ip), vehicle: saline",106 % of control
same,T/C,[5],86 % of control
Clc1ccccc1/C=N/N=C/c1ccccc1Cl,T/C,[6],91 % of control
same,T/C,[7],90 % of control
same,T/C,[8],89 % of control
O=C(O)C1CCC(CC2CCCCC2)CC1 (stereo unspecified),T/C,[9],93 % of control
same,T/C,[10],94 % of control
same,T/C,[11],104 % of control
CN1CCC(C#N)(c2ccccn2)CC1,T/C,"endpoint: mean survival time, dose: 5.0 mg/kg/injection, schedule: Q01DX009 (ip), vehicle: saline with Tween-80",95 % of control
same,T/C,"endpoint: mean survival time, dose: 5.0 mg/kg/injection, schedule: Q01DX009 (ip), vehicle: saline",103 % of control
same,T/C,"endpoint: mean survival time, dose: 10.0 mg/kg/injection, schedule: Q01DX009 (ip), vehicle: saline with Tween-80",91 % of control
same,T/C,"endpoint: mean survival time, dose: 10.0 mg/kg/injection, schedule: Q01DX009 (ip), vehicle: saline",106 % of control
same,T/C,"endpoint: mean survival time, dose: 20.0 mg/kg/injection, schedule: Q01DX009 (ip), vehicle: saline",97 % of control
O=C(O)CC(C(=O)O)=C(c1ccccc1)c1ccccc1,T/C,[12],98 % of control
same,T/C,[13],95 % of control
same,T/C,"endpoint: mean survival time, dose: 400.0 mg/kg/injection, schedule: Q01DX001 (ip), vehicle: saline",101 % of control
CCOc1ccc(N=Nc2sc(N)nc2-c2cccc([N+](=O)[O-])c2)cc1,T/C,[6],89 % of control
same,T/C,[7],96 % of control
same,T/C,[8],96 % of control
COc1cc(OC)cc(C2=NNc3n[nH]c(=S)n3N2)c1,T/C,[4],91 % of control
same,T/C,[9],93 % of control
same,T/C,[14],93 % of control
same,T/C,[10],90 % of control
same,T/C,[11],102 % of control
CSc1cccnn1,T/C,[1],93 % of control
same,T/C,[2],98 % of control
same,T/C,[15],95 % of control
CCOC(=O)CN1C(=O)NC(c2ccccc2)(c2ccccc2)C1=O,T/C,[4],94 % of control
same,T/C,"endpoint: mean survival time, dose: 100.0 mg/kg/injection, schedule: Q04DX003 (ip), vehicle: acetone",97 % of control
same,T/C,"endpoint: mean survival time, dose: 200.0 mg/kg/injection, schedule: Q04DX003 (ip), vehicle: acetone",101 % of control
same,T/C,[5],94 % of control
same,T/C,"endpoint: mean survival time, dose: 400.0 mg/kg/injection, schedule: Q04DX003 (ip), vehicle: acetone",103 % of control
O=c1[nH]c2c(ccc3cnccc32)c2c1CCC2,T/C,"endpoint: mean survival time, dose: 3.12 mg/kg/injection, schedule: Q01DX009 (ip), vehicle: saline",107 % of control
same,T/C,"endpoint: mean survival time, dose: 6.25 mg/kg/injection, schedule: Q01DX009 (ip), vehicle: saline",100 % of control and 110 % of control
same,T/C,"endpoint: mean survival time, dose: 12.5 mg/kg/injection, schedule: Q01DX009 (ip), vehicle: saline",96 % of control and 107 % of control
same,T/C,"endpoint: mean survival time, dose: 25.0 mg/kg/injection, schedule: Q01DX009 (ip), vehicle: saline",119 % of control and 111 % of control
same,T/C,[3],88 % of control and 96 % of control
Cc1cccc[n+]1[O-],T/C,[1],101 % of control
same,T/C,[2],98 % of control
same,T/C,[15],88 % of control
CC(C)C(NC(=O)C(NC(=O)C(CCCN=C(N)N)NC(=O)C(N)CCCCN)C(C)C)C(N)=O (stereo unspecified) (H-KRVV-NH2; configuration not given here),T/C,"endpoint: mean survival time, dose: 25.0 mg/kg/injection, schedule: Q01DX009 (ip), vehicle: water",95 % of control
same,T/C,"endpoint: mean survival time, dose: 50.0 mg/kg/injection, schedule: Q01DX009 (ip), vehicle: water",100 % of control
same,T/C,"endpoint: mean survival time, dose: 100.0 mg/kg/injection, schedule: Q01DX009 (ip), vehicle: water",108 % of control
same,T/C,"endpoint: mean survival time, dose: 200.0 mg/kg/injection, schedule: Q01DX009 (ip), vehicle: water",103 % of control
CC1(C)COCN1COC1CCCCC1,T/C,"endpoint: mean survival time, dose: 12.5 mg/kg/injection, schedule: Q01DX009 (ip), vehicle: suspension in saline",95 % of control
same,T/C,"endpoint: mean survival time, dose: 25.0 mg/kg/injection, schedule: Q01DX009 (ip), vehicle: suspension in saline",100 % of control
same,T/C,"endpoint: mean survival time, dose: 50.0 mg/kg/injection, schedule: Q01DX009 (ip), vehicle: suspension in saline",103 % of control
same,T/C,"endpoint: mean survival time, dose: 100.0 mg/kg/injection, schedule: Q01DX009 (ip), vehicle: suspension in saline",108 % of control
same,T/C,"endpoint: mean survival time, dose: 200.0 mg/kg/injection, schedule: Q01DX009 (ip), vehicle: suspension in saline",105 % of control
CC1OC(OC2CC(O)(C(=O)CO)Cc3c(O)c4c(c(O)c32)C(=O)c2ccccc2C4=O)CC(N)C1O (stereo unspecified),T/C,"endpoint: mean survival time, dose: 0.03 mg/kg/injection, schedule: Q01DX009 (ip), vehicle: water",114 % of control
same,T/C,"endpoint: mean survival time, dose: 0.13 mg/kg/injection, schedule: Q01DX009 (ip), vehicle: water",151 % of control
same,T/C,"endpoint: mean survival time, dose: 0.25 mg/kg/injection, schedule: Q01DX009 (ip), vehicle: water",175 % of control
same,T/C,"endpoint: mean survival time, dose: 1.0 mg/kg/injection, schedule: Q01DX009 (ip), vehicle: water",102 % of control
[C-]#[O+].[C-]#[O+].[C-]#[O+].[C-]#[O+].[C-]#[O+].[Cr].c1ccc(O[PH+](Oc2ccccc2)Oc2ccccc2)cc1,T/C,[16],96 % of control
same,T/C,[4],96 % of control
same,T/C,[14],91 % of control
CNC(C)C(O)c1ccccc1 (stereo unspecified),T/C,[16],100 % of control
same,T/C,[4],97 % of control
O=C(Nc1ccccc1Cl)Nc1ccccc1Cl,T/C,"endpoint: mean survival time, dose: 100.0 mg/kg/injection, schedule: Q04DX002 (ip), vehicle: saline with Tween-80",90 % of control
same,T/C,"endpoint: mean survival time, dose: 200.0 mg/kg/injection, schedule: Q04DX002 (ip), vehicle: saline with Tween-80",94 % of control
same,T/C,"endpoint: mean survival time, dose: 400.0 mg/kg/injection, schedule: Q04DX002 (ip), vehicle: saline with Tween-80",94 % of control
c1ccc2c[n+]3ccccc3cc2c1,T/C,"endpoint: mean survival time, dose: 12.5 mg/kg/injection, schedule: Q04DX003 (ip), vehicle: saline",97 % of control
same,T/C,"endpoint: mean survival time, dose: 25.0 mg/kg/injection, schedule: Q04DX003 (ip), vehicle: saline",98 % of control
[Cl][Pt+2][Cl].[NH-]c1cccc(C(F)(F)F)c1.[NH-]c1cccc(C(F)(F)F)c1,T/C,"endpoint: mean survival time, dose: 12.5 mg/kg/injection, schedule: Q04DX003 (ip), vehicle: saline with Tween-80",95 % of control
same,T/C,"endpoint: mean survival time, dose: 25.0 mg/kg/injection, schedule: Q04DX003 (ip), vehicle: saline with Tween-80",100 % of control
same,T/C,"endpoint: mean survival time, dose: 50.0 mg/kg/injection, schedule: Q04DX003 (ip), vehicle: saline with Tween-80",103 % of control
CC(C)C1OCC(C)(C)C(c2ccccc2)O1 (stereo unspecified),T/C,"endpoint: mean survival time, dose: 50.0 mg/kg/injection, schedule: Q04DX002 (ip), vehicle: saline",93 % of control
same,T/C,"endpoint: mean survival time, dose: 100.0 mg/kg/injection, schedule: Q04DX002 (ip), vehicle: saline",96 % of control
same,T/C,"endpoint: mean survival time, dose: 200.0 mg/kg/injection, schedule: Q04DX002 (ip), vehicle: saline",110 % of control
COc1ccc2nc(C(C)O)[nH]c2c1 (stereo unspecified),T/C,[4],89 % of control
same,T/C,[9],103 % of control
same,T/C,[14],93 % of control
same,T/C,[10],101 % of control
same,T/C,[5],89 % of control
same,T/C,[11],96 % of control
Cc1c(O)c(Br)c(C)c(O)c1Br (tested in a mixture with another compound),T/C,[12],98 % of control
same,T/C,[13],101 % of control
